The values below come from patent US20260015350A1, “AZAQUINAZOLINE PAN-KRAS INHIBITORS” (Mirati Therapeutics, Inc., priority 2022, published 2026).

The target of one assay is T1, KRas^G13D (Homo sapiens, UniProt P01116, G13D).
T1 construct: Biotinylated KRas (corresponding to amino acids 1-169, produced at Accelegan Inc.); biotin (biotinylated); purchased Accelegan Inc
The experiment in a line: KRas binding assay (TR-FRET tracer displacement), KRas G13D. Conditions: for IC50: TR-FRET tracer displacement, KRas G13D; for inhibition at 0.01 µM: single point, 10 nM compound, TR-FRET. In general terms: Time-resolved FRET reads energy transfer from a long-lived donor to a nearby acceptor.

Assay [1] has as its system KRas-mediated phosphorylation of ERK in HCT116 cells. Briefly: Inhibition of KRas-mediated phosphorylation of ERK (Cisbio HTRF pERK), HCT116 cells. It is filed as cell-based. Conditions: Homo sapiens; for inhibition at 0.1 µM: HCT-116, 3 h, single point, 100 nM compound, 3 hrs; for IC50: HCT-116, HTRF pERK. The method in brief: (§1)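 Compound treatment lasts 3 hrs on 6,000 seeded cells, testing 10 doses from a 10 uM top concentration in 3-fold decrements at 0.8% final DMSO. Trametinib at 0.2 uM defines the Min signal. Detection is HTRF on cold-lysed cell extracts.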

A further assay has as its target T2, KRas^G12R (Homo sapiens, UniProt P01116, G12R).
T2 construct: Biotinylated KRas (corresponding to amino acids 1-169, produced at Accelegan Inc.); biotin (biotinylated); purchased Accelegan Inc
The experiment in a line: KRas binding assay (TR-FRET tracer displacement), KRas G12R.

The next assay addresses T3, KRas^Q61H (Homo sapiens, UniProt P01116, Q61H).
T3 construct: Biotinylated KRas (corresponding to amino acids 1-169, produced at Accelegan Inc.); biotin (biotinylated); purchased Accelegan Inc
The experiment in a line: KRas binding assay (TR-FRET tracer displacement), KRas Q61H. Conditions: for IC50: TR-FRET tracer displacement, KRas Q61H; for inhibition at 0.01 µM: single point, 10 nM compound, TR-FRET.

The target of a further assay is T4, KRas^G12D (Homo sapiens, UniProt P01116, G12D).
T4 construct: Biotinylated KRas (corresponding to amino acids 1-169, produced at Accelegan Inc.); biotin (biotinylated); purchased Accelegan Inc
Briefly: KRas binding assay (TR-FRET tracer displacement), KRas G12D.

The next assay has as its target T5, KRas^WT (Homo sapiens, UniProt P01116).
T5 construct: Biotinylated KRas (corresponding to amino acids 1-169, produced at Accelegan Inc.); biotin (biotinylated); purchased Accelegan Inc
The experiment in a line: KRas binding assay (TR-FRET tracer displacement), KRas WT. Conditions: for IC50: TR-FRET tracer displacement, KRas WT; for inhibition at 0.01 µM: single point, 10 nM compound, TR-FRET.

The next assay deals with T6, KRas^G12A (Homo sapiens, UniProt P01116, G12A).
T6 construct: Biotinylated KRas (corresponding to amino acids 1-169, produced at Accelegan Inc.); biotin (biotinylated); purchased Accelegan Inc
The experiment in a line: KRas binding assay (TR-FRET tracer displacement), KRas G12A. Conditions: for IC50: TR-FRET tracer displacement, KRas G12A; for inhibition at 0.01 µM: single point, 10 nM compound, TR-FRET.

The test system of assay [2] is KRas-mediated phosphorylation of ERK in MKN1 cells. Briefly: Inhibition of KRas-mediated phosphorylation of ERK (Cisbio HTRF pERK), MKN1 cells. Conditions: Homo sapiens, MKN-1. It is filed as cell-based. Put shortly:
(§2)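 Day 1 seeding: 6,000 cells per well, RPMI/10% FBS, left overnight at 37° C. with 5% CO2. Plates then stood covered for 4 h at room temperature prior to HTRF detection of pERK.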

Assay [3] has as its system KRas-mediated phosphorylation of ERK in H727 cells. Briefly: Inhibition of KRas-mediated phosphorylation of ERK (Cisbio HTRF pERK), H727 cells. In kind it is cell-based. Conditions: Homo sapiens; for IC50: NCI-H727, H727 cells, HTRF pERK. The method in brief: (§3)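 Each compound was tested at 10 concentrations, threefold apart with 10 uM the highest, for 3 hrs on 6,000 seeded cells; final DMSO was 0.8% and Trametinib (0.2 uM) served as Min control. Lysed cells were analysed for pERK by HTRF.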

Assay [4] relates to KRas-mediated phosphorylation of ERK in AsPC-1 cells. Briefly: Inhibition of KRas-mediated phosphorylation of ERK (Cisbio HTRF pERK), AsPC-1 cells. Conditions: Homo sapiens; for IC50: ASPC1, AsPC-1 cells, HTRF pERK. In kind it is cell-based. The method in brief:
as §3

In a further assay the target is T7, KRas^G12C (Homo sapiens, UniProt P01116, G12C).
T7 construct: Biotinylated KRas (corresponding to amino acids 1-169, produced at Accelegan Inc.); biotin (biotinylated); purchased Accelegan Inc
Briefly: KRas binding assay (TR-FRET tracer displacement), KRas G12C. Conditions: for IC50: TR-FRET tracer displacement, KRas G12C; for inhibition at 0.01 µM: single point, 10 nM compound, TR-FRET.

Another assay addresses T8, KRas^G12S (Homo sapiens, UniProt P01116, G12S).
T8 construct: Biotinylated KRas (corresponding to amino acids 1-169, produced at Accelegan Inc.); biotin (biotinylated); purchased Accelegan Inc
The experiment in a line: KRas binding assay (TR-FRET tracer displacement), KRas G12S. Conditions: for IC50: TR-FRET tracer displacement, KRas G12S; for inhibition at 0.01 µM: single point, 10 nM compound, TR-FRET.

For assay [5], the system named is KRas-mediated phosphorylation of ERK in A549 cells. The experiment in a line: Inhibition of KRas-mediated phosphorylation of ERK (Cisbio HTRF pERK), A549 cells. In kind it is cell-based. Conditions: Homo sapiens; for inhibition at 0.1 µM: A549, 3 h, single point, 100 nM compound, 3 hrs; for IC50: HTRF pERK. Put shortly: as §1
The subject of assay [6] is KRas-mediated phosphorylation of ERK in PSN1 cells. Briefly: Inhibition of KRas-mediated phosphorylation of ERK (Cisbio HTRF pERK), PSN1 cells. In kind it is cell-based. Conditions: Homo sapiens. Put shortly:
as §2

For assay [7], the system named is KRas-mediated phosphorylation of ERK in H460 cells. The experiment in a line: Inhibition of KRas-mediated phosphorylation of ERK (Cisbio HTRF pERK), H460 cells. It is filed as cell-based. Conditions: Homo sapiens; for inhibition at 0.1 µM: NCI-H460, 3 h, single point, 100 nM compound, 3 hrs; for IC50: NCI-H460, HTRF pERK. Put shortly:
as §3

In assay [8] the test system is KRas-mediated phosphorylation of ERK in H358 cells. The experiment in a line: Inhibition of KRas-mediated phosphorylation of ERK (Cisbio HTRF pERK), H358 cells. Conditions: Homo sapiens; for inhibition at 0.1 µM: NCI-H358, 3 h, single point, 100 nM compound, 3 hrs; for IC50: NCI-H358, HTRF pERK. In kind it is cell-based. Put shortly:
as §3

The next assay deals with T9, KRas^G12V (Homo sapiens, UniProt P01116, G12V).
T9 construct: Biotinylated KRas (corresponding to amino acids 1-169, produced at Accelegan Inc.); biotin (biotinylated); purchased Accelegan Inc
The experiment in a line: KRas binding assay (TR-FRET tracer displacement), KRas G12V.

Molecules are shown by their SMILES.

The IC50 is the concentration that gives 50% inhibition. A higher IC50 goes with lower potency. The term inhibition denotes the relative decrease from the control value, in per cent.

T3 sequence (P01116 1-169 isoform P01116-2 Q61H): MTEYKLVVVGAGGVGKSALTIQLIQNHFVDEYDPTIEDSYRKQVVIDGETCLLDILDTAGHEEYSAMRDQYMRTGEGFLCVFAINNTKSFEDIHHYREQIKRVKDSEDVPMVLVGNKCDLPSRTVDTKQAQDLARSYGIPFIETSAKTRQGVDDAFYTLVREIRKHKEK
T5 sequence (P01116 1-169 isoform P01116-2): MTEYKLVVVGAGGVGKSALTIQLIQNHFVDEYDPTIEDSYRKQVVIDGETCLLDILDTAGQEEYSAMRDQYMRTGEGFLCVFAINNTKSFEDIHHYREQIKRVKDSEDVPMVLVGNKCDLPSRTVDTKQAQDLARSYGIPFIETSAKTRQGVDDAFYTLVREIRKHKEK
T9 sequence (P01116 1-169 isoform P01116-2 G12V): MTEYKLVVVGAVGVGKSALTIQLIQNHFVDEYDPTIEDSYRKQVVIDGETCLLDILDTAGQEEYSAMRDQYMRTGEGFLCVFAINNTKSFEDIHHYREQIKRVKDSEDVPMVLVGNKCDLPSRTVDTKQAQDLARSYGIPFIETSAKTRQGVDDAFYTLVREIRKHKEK
T2 sequence (P01116 1-169 isoform P01116-2 G12R): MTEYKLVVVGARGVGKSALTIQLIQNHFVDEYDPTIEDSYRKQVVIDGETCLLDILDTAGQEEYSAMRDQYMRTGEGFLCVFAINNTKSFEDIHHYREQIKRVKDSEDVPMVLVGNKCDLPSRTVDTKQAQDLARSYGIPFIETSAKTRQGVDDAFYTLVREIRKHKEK
T1 sequence (P01116 1-169 isoform P01116-2 G13D): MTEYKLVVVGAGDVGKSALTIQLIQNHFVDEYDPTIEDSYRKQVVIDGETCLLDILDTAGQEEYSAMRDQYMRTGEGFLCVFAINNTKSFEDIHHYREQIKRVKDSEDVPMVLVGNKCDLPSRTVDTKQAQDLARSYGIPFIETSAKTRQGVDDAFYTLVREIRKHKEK
T7 sequence (P01116 1-169 isoform P01116-2 G12C): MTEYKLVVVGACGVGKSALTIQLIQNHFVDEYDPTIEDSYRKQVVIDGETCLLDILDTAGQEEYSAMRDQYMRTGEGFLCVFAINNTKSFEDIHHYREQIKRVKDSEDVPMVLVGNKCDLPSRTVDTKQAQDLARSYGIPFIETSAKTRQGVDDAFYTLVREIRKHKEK
T6 sequence (P01116 1-169 isoform P01116-2 G12A): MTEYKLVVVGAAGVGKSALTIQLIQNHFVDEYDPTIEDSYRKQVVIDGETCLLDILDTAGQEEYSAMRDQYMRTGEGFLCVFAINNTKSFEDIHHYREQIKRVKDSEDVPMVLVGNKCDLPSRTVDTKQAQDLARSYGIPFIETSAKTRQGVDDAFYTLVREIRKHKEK
T4 sequence (P01116 1-169 isoform P01116-2 G12D): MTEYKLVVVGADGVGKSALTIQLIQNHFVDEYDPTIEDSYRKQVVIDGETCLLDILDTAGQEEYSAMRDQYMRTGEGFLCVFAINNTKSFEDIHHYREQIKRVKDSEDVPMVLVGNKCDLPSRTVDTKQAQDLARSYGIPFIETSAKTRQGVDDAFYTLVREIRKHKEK
T8 sequence (P01116 1-169 isoform P01116-2 G12S): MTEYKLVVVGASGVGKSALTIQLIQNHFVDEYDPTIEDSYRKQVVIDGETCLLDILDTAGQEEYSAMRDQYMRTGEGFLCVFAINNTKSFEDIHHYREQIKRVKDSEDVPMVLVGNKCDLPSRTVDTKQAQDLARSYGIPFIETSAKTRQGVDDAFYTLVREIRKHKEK

With `CCc1cccc2cc3[nH]ncc3c(-c3ncc4c(N5CCCn6nc(C(=O)N(C)C)cc6C5)nc(OC[C@@]56CCCN5C[C@H](F)C6)nc4c3F)c12` [Example 770, 5-(7-(5-ethyl-1H-benzo[f]indazol-4-yl)-8-fluoro-2-(((2R,7aS)-2-fluorohexahydro-1H-pyrrolizin-7a-yl)methoxy)pyrido[4,3-d]pyrimidin-4-yl)-N,N-dimethyl-5,6,7,8-tetrahydro-4H-pyrazolo[1,5-a][1,4]diazepine-2-carboxamide], the IC50 on KRas^G13D is 25 nM; in [1] it was 3440 nM; on KRas^G12R, 7 nM; on KRas^Q61H, 21 nM; on KRas^G12D it was under 2 nM; on KRas^WT, 15 nM. The IC50 was 12 nM at KRas^G12A; 5 nM in assay [2]; 654 nM in assay [3]; 444 nM in assay [4]; 6 nM on KRas^G12C; 6 nM at KRas^G12S. Also, the IC50 in assay [5] is 3330 nM; in assay [6], over 10000 nM; in assay [7], 1720 nM; in assay [8], 258 nM; on KRas^G12V, 3 nM. For the same compound, the inhibition at 0.1 µM is 10% in assay [1], -1% in assay [5], -1% in [7] and 12% in assay [8].

Turning to `CN(C)C(=O)c1cc2n(n1)CCCN(c1nc(OC[C@@]34CCCN3C[C@H](F)C4)nc3c(F)c(-c4c(C5CC5)c(Cl)cc5[nH]ncc45)ncc13)C2` [Example 882, 5-(7-(6-chloro-5-cyclopropyl-1H-indazol-4-yl)-8-fluoro-2-(((2R,7aS)-2-fluorotetrahydro-1H-pyrrolizin-7a(5H)-yl)methoxy)pyrido[4,3-d]pyrimidin-4-yl)-N,N-dimethyl-5,6,7,8-tetrahydro-4H-pyrazolo[1,5-a][1,4]diazepine-2-carboxamide], the IC50 on KRas^G13D was determined as 15 nM; in assay [1] it was 7110 nM; on KRas^G12R it was 8 nM; on KRas^Q61H, 15 nM; at KRas^G12D, 2 nM; on KRas^WT, 13 nM. Further, the IC50 at KRas^G12A is 9 nM; in [2], 521 nM; in [3], 1300 nM; in assay [4], 677 nM; on KRas^G12C, 5 nM; at KRas^G12S, 5 nM. The IC50 was over 10000 nM in assay [5]; over 10000 nM in [6]; 4460 nM in [7]; 429 nM in assay [8]; 3 nM at KRas^G12V.

Turning to `O=S1(=O)CCC2(CCCN(c3nc(OC[C@@]45CCCN4C[C@H](F)C5)nc4c(F)c(-c5cc(O)cc6cccc(Cl)c56)ncc34)C2)N1` (stereo partly drawn) [Example 604, 7-(7-(8-chloro-3-hydroxynaphthalen-1-yl)-8-fluoro-2-(((2R,7aS)-2-fluorohexahydro-1H-pyrrolizin-7a-yl)methoxy)pyrido[4,3-d]pyrimidin-4-yl)-2-thia-1,7-diazaspiro[4.5]decane 2,2-dioxide], the IC50 is under 2 nM at KRas^G13D; under 2 nM on KRas^G12R; under 2 nM on KRas^Q61H; under 2 nM at KRas^G12D; under 2 nM on KRas^WT; 2 nM at KRas^G12A. The IC50 is 2 nM in assay [2]; 71 nM in assay [3]; 81 nM in assay [4]; under 2 nM at KRas^G12C; under 2 nM on KRas^G12S; 425 nM in [6]. At KRas^G12V, this compound gave an IC50 of under 2 nM. Also, the inhibition at 0.1 µM stood at 64% in assay [1]; 47% in [3] (NCI-H727, 3 h, single point, 100 nM compound, 3 hrs, H727 cells); 53% in [4] (ASPC1, 3 h, single point, 100 nM compound, 3 hrs, AsPC-1 cells); 27% in assay [5]; 69% in assay [7]; 94% in assay [8].

Regarding `CCc1c(F)ccc2cc3[nH]ncc3c(-c3ncc4c(N5CCC[C@@](C)(O)C5)nc(OC[C@@]56CCCN5C[C@H](F)C6)nc4c3F)c12` [Example 776, (3R)-1-(7-(5-ethyl-6-fluoro-1H-benzo[f]indazol-4-yl)-8-fluoro-2-(((2R,7aS)-2-fluorohexahydro-1H-pyrrolizin-7a-yl)methoxy)pyrido[4,3-d]pyrimidin-4-yl)-3-methylpiperidin-3-ol], the inhibition at 0.01 µM on KRas^G13D worked out at 84%; at KRas^Q61H it was 80%; at KRas^WT, 78%; at KRas^G12A, 80%; on KRas^G12C, 85%; on KRas^G12S, 83%. Further, the IC50 stood at 75 nM in assay [1]; 4 nM at KRas^G12R; 2 nM on KRas^G12D; 16 nM in assay [2]; 61 nM in [3]; 18 nM in assay [4]. Besides, the half-inhibitory concentration (IC50) stood at 18 nM in [5]; 9010 nM in assay [6]; 29 nM in assay [7]; 18 nM in assay [8]; 2 nM on KRas^G12V. In addition, the inhibition at 0.1 µM in assay [5] is 60%; in assay [8], 84%.

With `CCc1c(F)ccc2cc(O)cc(-c3ncc4c(N5CCCC6(CNS(=O)(=O)N6)C5)nc(OC[C@]56CCCN5[C@H](COC(=O)N(C)C)CC6)nc4c3F)c12` (stereo partly drawn) [Example 716, ((3S,7aR)-7a-(((4-(2,2-dioxido-2-thia-1,3,7-triazaspiro[4.5]decan-7-yl)-7-(8-ethyl-7-fluoro-3-hydroxynaphthalen-1-yl)-8-fluoropyrido[4,3-d]pyrimidin-2-yl)oxy)methyl)hexahydro-1H-pyrrolizin-3-yl)methyl dimethylcarbamate], the inhibition at 0.01 µM stood at 98% at KRas^G13D; 98% on KRas^Q61H; 93% at KRas^WT; 83% at KRas^G12A; 97% at KRas^G12C; 95% on KRas^G12S. For the same compound, the inhibition at 0.1 µM stood at 34% in assay [1], 37% in [5], 56% in [7] and 71% in assay [8]. The IC50 at KRas^G12R is under 2 nM; at KRas^G12D, under 2 nM; in [2], 9 nM; in assay [3], 273 nM; in [4] it was 39 nM; in assay [6] it was 1020 nM. In addition, the IC50 at KRas^G12V was under 2 nM.
